Measured values reported in patent US9498506B2, “Pharmaceutical composition for preventing or treating thyroid diseases, comprising extract from Lonicera caerulea L. var. edulis fruits as active ingredient” (H&K BIOSCIENCE CO., LTD., priority 2013, dated 2016).
Marks after values point to notes of the source that are not given here.

Legend:
Assay type in all cases: in vivo
[1] = system: PTU-induced hypothyroidism rat; test: Histopathological observation of reproductive organs, PTU-induced hypothyroidism animal model; details: PTU-induced hypothyroidism rats; 0.5 mg/kg intraperitoneally
Description: (§1) Experimental animals are the same as described in Experimental Example 3.
(§2) Based on conventional methods known in the art (Neuro Endocrinol Lett. 1999; 20:311-14; Toxicol Sci. 2002; 69:79-91; Korean J Orient Physiol Pathol. 2010; 24:630-7), a hypothyroidism animal model was prepared by administering Propylthiouracil (PTU). Specifically, hypothyroidism was induced by dissolving 100 mg of PTU into 10 ml of saline solution and subcutaneously injecting the capacity of 1 ml/kg into dorsal neck of the animal model once everyday for a period of 28 days. On the other hand, in the intact control group, the same amount of saline solution instead of PTU was administered for the same period in the same manner as described above (FIG. 5).
(§3) Targeting the hypothyroidism animal prepared as above, 500, 250, and 125 mg/kg of the extract from Lonicera caerulea L. car. Edulis fruits (BH) prepared in Example 1-1 were dissolved in sterilized distilled water, respectively, and the capacity of 5 ml/kg was orally administered forcibly once a day for 42 consecutive days, 2 weeks prior to the PTU treatment. On the other hand, LF, an experimental group, was also dissolved in sterilized distilled water, and the capacity of 250 mg/kg was orally administered for the same period in the manner as described above.
(§4) 0.5 mg/kg of LT4 was dissolved in saline solution, and the capacity of 1 ml/kg was intraperitoneally administered once a day for 28 consecutive days since the PTU treatment day in the same manner as described above (Table 6, FIG. 5).

[2] = system: PTU-induced hypothyroidism rat; test: Thyroid hormone content in blood, PTU-induced hypothyroidism animal model; details: PTU-induced hypothyroidism rats; 0.5 mg/kg intraperitoneally
Description: as §1, §2, §3, §4
Next, the effects on treating hypothyroidism was confirmed by observing the weight change, thyroid weight change, content change in blood thyroid hormone (TSH, T3, and T4), and histopathological changes in the thyroid (the total thickness of thyroid in which the cells have been cut and average diameter of thyroid follicle) of the rats for each group.

[3] = system: PTU-induced hypothyroidism rat; test: Testicular antioxidant defense system, PTU-induced hypothyroidism animal model; details: testis, PTU-induced hypothyroidism rats; 0.5 mg/kg intraperitoneally
Description: as §1, §2, §3, §4

[4] = system: PTU-induced hypothyroidism rat; test: Content of sex hormones in serum, PTU-induced hypothyroidism animal model; details: PTU-induced hypothyroidism rats; LT4 0.5 mg/kg intraperitoneally
Description: as §1, §2, §3, §4

[5] = system: PTU-induced hypothyroidism rat; test: Histopathological observation of thyroid, PTU-induced hypothyroidism animal model; details: PTU-induced hypothyroidism rats; 0.5 mg/kg intraperitoneally
Description: as §1, §2
(§5) Targeting the hypothyroidism animal prepared as above, 500, 250, and 125 mg/kg of the extract from Lonicera caerulea L. car. Edulis fruits (BH) prepared in Example 1-1 were dissolved in sterilized distilled water, respectively, and the capacity of 5 ml/kg was orally administered forcibly once a day for 42 consecutive days, 2 weeks prior to the PTU treatment. On the other hand, LF, an experimental group, was also dissolved in sterilized distilled water, and the capacity of 250 mg/kg was orally administered for the same period in the manner as described above. […]

[6] = system: PTU-induced hypothyroidism rat; test: Change in the weight of reproductive organs, PTU-induced hypothyroidism animal model; details: PTU-induced hypothyroidism rats; 0.5 mg/kg intraperitoneally
Description: as §1, §2, §3, §4

[7] = system: PTU-induced hypothyroidism rat; test: Change in the thyroid weight, PTU-induced hypothyroidism animal model; details: PTU-induced hypothyroidism rats; 0.5 mg/kg intraperitoneally
Description: as §1, §2, §5

[8] = system: PTU-induced hypothyroidism rat; test: Change in weight, PTU-induced hypothyroidism animal model; details: PTU-induced hypothyroidism rats
Description: as §1, §2, §3, §4
Next, the effects on treating hypothyroidism was confirmed by observing the weight change, thyroid weight change, content change in blood thyroid hormone (TSH, T3, and T4), and histopathological changes in the thyroid (the total thickness of thyroid in which the cells have been cut and average diameter of thyroid follicle) of the rats for each group. […]

[9] = system: LT4-induced hyperthyroidism rat; test: Change in weight, LT4-induced hyperthyroidism animal model; details: LT4-induced hyperthyroidism rats
Description: (§6) Total number of 150 male SPF. VAF Outbred-Rats, Crl:CD [Sprague-Dawley, SD] rats (6 weeks old, OrientBio, Seungnam, Korea) were prepared and refined for 8 days in a laboratory environment. After that, rats with consistent weight (average: 233.70 g±10.47 g, 217 g to 252 g) were selected, and 8 rats per group (total of 56 rats) were used for the experiment. In the present invention, all the experimental animals were treated according to animal ethics of the animal experimentation ethics committee of Daegu Haany University. The experiment was conducted after pre-approval.
(§7) Based on conventional methods known in the art (Clin Exp Pharmacol Physiol. 2007 November; 34(11):1217-9, etc.), a hyperthyroidism animal model was prepared by administering LT4 (levothyroxine). Specifically, hyperthyroidism was induced by dissolving 3 mg of LT4 into 10 ml of saline solution and subcutaneously injecting the capacity of 1 ml/kg into dorsal neck of the animal model once everyday for a period of 27 days. On the other hand, in the intact control group, the same amount of saline solution instead of LT4 was administered for the same period in the same manner as described above (FIG. 1).
(§8) Targeting the hyperthyroidism animal prepared as above, 500, 250, and 125 mg/kg of the extract from Lonicera caerulea L. car. Edulis fruits (BH) prepared in Example 1-1 were dissolved in sterilized distilled water, respectively, and the capacity of 5 ml/kg was orally administered forcibly once a day from Day 12 to Day 15 since the treatment.
On the other hand, Lonicerae Flos aqueous hot water extract (LF), an experimental group, was also dissolved in sterilized distilled water, and the capacity of 250 mg/kg was orally administered for the same period in the same manner as described above. 10 mg/kg of PTU was dissolved in saline solution, and the capacity of 1 ml/kg was intraperitoneally administered for the same period in the same manner as described above (Table 1, FIG. 1).
Next, the effects on treating hyperthyroidism was confirmed by observing the weight change, thyroid weight change, content change in blood thyroid hormone (TSH, T3, and T4), and histopathological change in the thyroid (the total thickness of thyroid in which the cells have been cut, average diameter of thyroid follicle, and thickness of thyroid epithelium) of the rats for each group.

[10] = system: LT4-induced hyperthyroidism rat; test: Change in the weight of thyroid, LT4-induced hyperthyroidism animal model; details: LT4-induced hyperthyroidism rats; 10 mg/kg intraperitoneally
Description: as §6
Based on conventional methods known in the art (Clin Exp Pharmacol Physiol. 2007 November; 34(11):1217-9, etc.), a hyperthyroidism animal model was prepared by administering LT4 (levothyroxine). […]
On the final day of sacrifice, left thyroids of all the experimental animals were extracted and isolated and next, the weight was measured and designated as the absolute weight. In order to minimize the secondary change accompanied with the change in weight, relative thyroid gland weight (Absolute […] weight/body weight at sacrifice ×100), which was the ratio of the absolute weight of the thyroid based on body weight, was calculated.

[11] = system: LT4-induced hyperthyroidism rat; test: Histopathological observation of thyroid, LT4-induced hyperthyroidism animal model; details: LT4-induced hyperthyroidism rats; 10 mg/kg intraperitoneally
Description: as §6, §7, §8
On the other hand, Lonicerae Flos aqueous hot water extract (LF), an experimental group, was also dissolved in sterilized distilled water, and the capacity of 250 mg/kg was orally administered for the same period in the same manner as described above. 10 mg/kg of PTU was dissolved in saline solution, and the capacity of 1 ml/kg was intraperitoneally administered for the same period in the same manner as described above (Table 1, FIG. 1). […]

[12] = system: LT4-induced hyperthyroidism rat; test: Thyroid hormone content in blood (radioimmunoassay), LT4-induced hyperthyroidism animal model; details: LT4-induced hyperthyroidism rats; 10 mg/kg intraperitoneally
Description: as §6, §7, §8
On the other hand, Lonicerae Flos aqueous hot water extract (LF), an experimental group, was also dissolved in sterilized distilled water, and the capacity of 250 mg/kg was orally administered for the same period in the same manner as described above. […]
The TSH, T3, and T4 contents in blood were measured in the units including ng/ml or μg/ml by Gamma count Cobra II (Packard Co., IL, USA) utilizing Coat A count Total TSH, T3 or T4 kit (DPC, CA, USA), respectively, based on Radioimmunoassay method (Toxicol Sci 69(1): 79-91, 2002).

N[C@@H](Cc1cc(I)c(Oc2cc(I)c(O)c(I)c2)c(I)c1)C(=O)O [LT4, Levothyroxine]
Epididymis A/O tubule percentages [1]: 56.00 ± 7.52^df %/mm^2
Epididymis Mean tubular diameters [1]: 217.98 ± 14.97^df μm/tubules of head
Prostate Atrophic tubule percentage [1]: 73.50 ± 10.80^ab %/mm^2
Prostate Mean tubular epithelial thickness [1]: 11.82 ± 2.76^df μm/tubules
Testis Mean semniferous tubule diameters [1]: 195.00 ± 13.29^df μm/tubules
Testis Stage I~II semniferous tubule percentages [1]: 15.63 ± 2.39^df %/mm^2
Serum thyroid hormone levels TSH [2]: 10.74 ± 1.62^bc ng/ml
Serum thyroid hormone levels Thyroxine [2]: 6.75 ± 1.45^e μg/ml
Serum thyroid hormone levels Tri-iodothyronine [2]: 19.24 ± 3.21^a ng/ml
Antioxidant defense system Catalase [3]: 8.63 ± 2.13^eg U/mg protein
Antioxidant defense system H2O2 [3]: 80.63 ± 16.27^ab nM/mg protein
Antioxidant defense system SOD [3]: 8.50 ± 2.00^eg U/mg protein
Lipid peroxidation Malondialdehyde [3]: 5.54 ± 0.91 nM/mg protein
Serum male reproductive hormone levels DHT [4]: 98.00 ± 13.43^ab pg/ml
Serum male reproductive hormone levels FSH [4]: 21.01 ± 1.65^ab ng/ml
Serum male reproductive hormone levels Testosterone [4]: 1.45 ± 0.18^fi ng/ml
Thyroid gland Mean follicular diameters [5]: 102.24 ± 12.47^ac μm/follicle
Thyroid gland Total thickness [5]: 1542.77 ± 137.07^bc μm/central regions
Absolute organ weights Epididymis [6]: 0.342 ± 0.042^ac g
Absolute organ weights Prostate [6]: 0.492 ± 0.042^ef g
Absolute organ weights Testis [6]: 1.082 ± 0.045^eg
Relative organ weights Epididymis [6]: 0.086 ± 0.012^gi % of body weights
Relative organ weights Prostate [6]: 0.124 ± 0.013^gf % of body weights
Relative organ weights Testis [6]: 0.273 ± 0.021^ac % of body weights
Absolute organ weights Thyroid gland [7]: 0.012 ± 0.003^c g
Relative organ weights Thyroid gland [7]: 0.003 ± 0.001^c % of body weights
Body weight gains during 4 weeks of PTU treatment ([8]; 0.5 mg/kg intraperitoneally): 45.50 ± 14.55^fg
Body weight gains during 6 weeks of total experiments ([8]; 0.5 mg/kg intraperitoneally): 173.00 ± 16.75^ab
Body weight gains during 2 weeks of test material pretreatment ([8]; 0.5 mg/kg intraperitoneally group, period before LT4 and PTU dosing, in g (unit assumed)): 127.50 ± 13.15

CCCc1cc(=O)[nH]c(=S)[nH]1 [PTU, 6-n-propyl-2-thiouracil]
Body weight gains during 15 days of PTU and herbal extracts treatment ([9]; 10 mg/kg intraperitoneally): 58.75 ± 15.04^ab
Body weight gains during 27 days of total experiments ([9]; 10 mg/kg intraperitoneally): 113.63 ± 24.49^ab
days after administration from which weight was considerably increased compared to LT4 control ([9]; 10 mg/kg intraperitoneally): 5 days
Body weight gains during 12 days of LT4 pretreatment ([9]; 10 mg/kg intraperitoneally group, period before test substance dosing): 54.50 ± 13.15^d
Absolute organ weights Thyroid gland [10]: 8.88 ± 2.03^h mg
Relative organ weights (% of BW) Thyroid gland [10]: 2.71 ± 0.64^c mg/g of BW
Thyroid glands Mean follicular epithelium thickness [11]: 14.50 ± 2.84^gh μm/follicle
Thyroid glands Mean follicular thickness [11]: 71.87 ± 12.05^c μm/follicle
Thyroid glands Total thickness [11]: 1628.19 ± 174.84^ac μm/central region
Serum thyroid hormone levels TSH [12]: 1.37 ± 0.24^ac ng/ml
Serum thyroid hormone levels Thyroxine [12]: 71.30 ± 23.13^bc μg/ml
Serum thyroid hormone levels Tri-iodothyronine [12]: 0.80 ± 0.18^ac ng/ml
